Where “and” joins values, the source holds several entries; their conditions need not be identical. Equal values may be shown once. Entries after “also recorded” stand apart in the source; their conditions may differ. Read-outs that look alike come from different tables or passages of the source.
Tests used:
Forced swim test = type: in vivo, rat; conditions: for Immobility, Mean frequency / Swimming, Mean frequency: single administration 24 hours prior, 60 counts per subject; for Immobility, Mean Diff. (Fisher's PLSD) / Swimming, Mean Diff. (Fisher's PLSD): Vehicle minus treatment
[1] = Serum glucose (colorimetric kit) in MAD 25 mg subjects; type: in vivo, human; conditions: 25 mg per day for 10 days; for Mean serum glucose change vs baseline: six treated subjects; for serum glucose, individual subjects: hydrochloride
[2] = Female urine sniffing test (FUST); type: in vivo; conditions: rat; 24 hr after single dose; ketamine 10 mg/kg ip, d-methadone 20 mg/kg sc
[3] = Body weight gain in rats (chronic constrictive nerve injury model experiment); type: in vivo; conditions: rat
[4] = Modified Mini Mental State (3MS) in patients with chronic cancer pain (phase I-2a study); type: in vivo, human; conditions: 40 mg every 12 hours for 12 days
[5] = Locomotor activity assessment (distance traveled, rearing); type: in vivo, rat; conditions: for Distance traveled min 1-5, Mean / Rearing min 1-5, Mean / Total Distance Traveled, Mean / Total Rearing, Mean: 24 hours prior to testing; for Total Rearing, Mean: 60 minute test
[6] = Bond-Lader Visual Analog Scale (cognitive and psychotomimetic effects), SAD and MAD studies
[7] = Novelty-suppressed feeding test (NSFT); type: in vivo; conditions: rat; 72 hr after single dose; ketamine 10 mg/kg ip, d-methadone 20 mg/kg sc
[8] = both, human, in vivo
testosterone = assay: Serum testosterone levels in male MAD 25 mg subjects; type: in vivo, human; conditions: for Testosterone Levels, individual male subjects: hydrochloride
[9] = human, in vivo
[10] = in vivo
[11] = molecular target: T1, serotonin transporter (SERT or 5-HT) (Rattus norvegicus, UniProt P31652); assay: biochemical
T1 sequence (P31652 whole entry): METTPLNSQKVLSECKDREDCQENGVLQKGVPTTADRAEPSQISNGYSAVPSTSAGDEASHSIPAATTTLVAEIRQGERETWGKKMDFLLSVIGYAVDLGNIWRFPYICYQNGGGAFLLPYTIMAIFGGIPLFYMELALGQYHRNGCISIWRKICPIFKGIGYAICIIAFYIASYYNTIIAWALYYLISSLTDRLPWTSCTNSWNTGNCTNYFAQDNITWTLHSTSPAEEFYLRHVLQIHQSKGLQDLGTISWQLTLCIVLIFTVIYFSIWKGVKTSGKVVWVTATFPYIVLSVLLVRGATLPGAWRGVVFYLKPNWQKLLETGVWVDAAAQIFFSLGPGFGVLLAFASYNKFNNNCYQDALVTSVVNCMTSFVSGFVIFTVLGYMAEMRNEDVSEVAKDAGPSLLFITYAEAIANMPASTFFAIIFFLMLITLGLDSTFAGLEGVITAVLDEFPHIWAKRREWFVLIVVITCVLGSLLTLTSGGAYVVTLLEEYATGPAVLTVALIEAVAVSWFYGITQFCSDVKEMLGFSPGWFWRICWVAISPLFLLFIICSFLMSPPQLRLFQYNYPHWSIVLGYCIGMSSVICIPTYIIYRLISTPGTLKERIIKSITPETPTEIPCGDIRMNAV

[12] = in vivo; remark: listed apart in the source
BDNF = BDNF levels (ELISA) in MAD study subjects; type: in vivo, human; conditions: for BDNF, individual subjects: hydrochloride
[13] = MAD study: pupillary constriction; type: in vivo, human; conditions: mean (SD)
clinical = conditions: both, human, in vivo
[14] = molecular target: T1, serotonin transporter (SERT or 5-HT)
[15] = Single ascending dose (SAD) study in healthy volunteers: pharmacokinetics of d-methadone; conditions: both, human, in vivo
[16] = rat, 24 h after dosing, one-way ANOVA
[17] = 2-3-5 hours after single dose 5 mg, SAD

## CCC(=O)C(C[C@H](C)N(C)C)(c1ccccc1)c1ccccc1 [d-methadone]
Forced swim test; 10 mg/kg
  Immobility, Mean frequency: 31.400
  Swimming, Mean frequency: 20.200
  Immobility, Mean Diff. (Fisher's PLSD): 17.600
  Swimming, Mean Diff. (Fisher's PLSD): −12.978
Forced swim test; 20 mg/kg
  Immobility, Mean frequency: 23.556
  Swimming, Mean frequency: 32.667
  Immobility, Mean Diff. (Fisher's PLSD): 25.444
  Swimming, Mean Diff. (Fisher's PLSD): −25.444
Forced swim test; 40 mg/kg
  Immobility, Mean frequency: 23.200
  Swimming, Mean frequency: 26.200
  Immobility, Mean Diff. (Fisher's PLSD): 25.800
  Swimming, Mean Diff. (Fisher's PLSD): −18.978
[1]; day 10
  Mean serum glucose change vs baseline: −0.08 mmol/I
[1]; day 12
  Mean serum glucose change vs baseline: −0.43 mmol/I
[1]; Day-10
  serum glucose, individual subjects: 3.2 mmol/I and 4.9 mmol/I
[1]; Day-12
  serum glucose, individual subjects: 4.9 mmol/I (3×) and 4.1 mmol/I
[2]
  FUST: time sniffing water: no effect
  FUST: time spent sniffing female urine vs vehicle: increased
[3]; 10 mg/kg s.c. once daily 15 days
  mean weight gain baseline to day 15: 41 grams
[3]; 20 mg/kg s.c. once daily 15 days
  mean weight gain baseline to day 15: 36 grams
[3]; 40 mg/kg S.C. once daily for 15 days
  Body weight gain vs vehicle-treated animals: lower weight gain
[3]; 40 mg/kg s.c. once daily 15 days
  mean weight gain baseline to day 15: 22 grams
[4]
  Patients with 3MS improvement by at least one point: five out of six
[5]; 10 mg/kg
  Distance traveled min 1-5, Mean: 597.167
  Rearing min 1-5, Mean: 26.333
  Total Distance Traveled, Mean: 2605.500 cm/60 min
  Total Rearing, Mean: 119.167
[5]; 20 mg/kg
  Distance traveled min 1-5, Mean: 556.833
  Rearing min 1-5, Mean: 28.667
  Total Distance Traveled, Mean: 2060.667 cm/60 min
  Total Rearing, Mean: 100.167
[5]; 40 mg/kg
  Distance traveled min 1-5, Mean: 447.500
  Rearing min 1-5, Mean: 17.333
  Total Distance Traveled, Mean: 1773.000 cm/60 min
  Total Rearing, Mean: 75.000
[5]; [16]
  Locomotor activity: total distance traveled (60 min): no significant effect
  Locomotor activity: total rearing frequency (60 min): no significant effect
[6]; [17]
  Bond-Lader VAS mean score: I am feeling drowsy (0: Alert, 100: Drowsy): 19.1
  Bond-Lader VAS mean score: I am feeling proficient (0: Incompetent, 100: Proficient): 93.6
  Bond-Lader VAS mean score: I am feeling quick witted (0: Mentally slow, 100: Quick witted): 91.8
[6]; SAD 5 mg single dose, 2-3-5 hours post dose
  Bond-Lader Visual Analog Scale, domains of mental alertness and cognitive functions, vs placebo arm: improved scores
[6]; healthy subjects of SAD and MAD studies
  Cognitive deficits or psychotomimetic effects (Bond-Lader Visual Analog Scale): did not cause clinically significant cognitive deficits or psychotomimetic effects
[7]
  NSFT: latency to eat in a novel open field: significantly decreased
[8]
  Number of doses to steady state: 6-7 doses
[8]; 25 mg
  AUCtau: 4392 ng·h/mL
[8]; 50 mg
  AUCtau: 10,147 h*ng/mL
[8]; 75 mg
  AUCtau: 10,537 h*ng/mL
testosterone; 25 mg once per day for ten days, three male subjects
  Testosterone serum levels: increased
testosterone; Day 6, 25 mg once a day for 10 days
  Testosterone Levels, individual male subjects: 13.1 nmol/L
testosterone; Day 12, 25 mg once a day for 10 days
  Testosterone Levels, individual male subjects: 14.4 nmol/L and 10.1 nmol/L
testosterone; Follow Up (Day 18 ± 1), 25 mg once a day for 10 days
  Testosterone Levels, individual male subjects: 9.6 nmol/L and 13.6 nmol/L and 8.1 nmol/L
testosterone; Screening (Day −1), baseline, normal range 7.6-31.4
  Testosterone Levels, individual male subjects: 7.4 nmol/L and 9.2 nmol/L and 4.1 nmol/L
[9]; both
  Maximum QTcF interval observed: 462 ms
  Model-predicted ΔΔQT effect at geometric mean plasma concentration: 16.0 to 21.0 ms
[9]; male
  QTc, individual prolonged value: 434 ms
[10]
  Tolerability: well tolerated
[11]
  IC50: 120 nM
[12]; both, human
  TEAE: any event: 5 n (%) [number of events]
  TEAE: dizziness: 1 n (%) [number of events]
[12]
  Tolerability: well tolerated
BDNF; 25 mg a day for ten days
  Subjects with increase in BDNF levels post treatment vs pre-treatment: 6 of 6
BDNF; 25 mg, healthy volunteers
  BDNF serum levels: significantly increases
BDNF; 50 mg and 75 mg doses, not statistically significant against placebo
  BDNF levels after treatment vs pre-treatment: consistently showed an increase
BDNF; Day 2 hr 4, 25 mg a day oral
  BDNF, individual subjects: BDNF 3.603 ng/L; also recorded: BDNF 2.529 ng/L; also recorded: BDNF 2.038 ng/L; also recorded: BDNF 1.862 ng/L; also recorded: BDNF 8.995 ng/L; also recorded: BDNF 2.750 ng/L
BDNF; Day 6 hr 4, 25 mg a day oral
  BDNF, individual subjects: 4.820 ng/mL and 2.920 ng/mL and 2.348 ng/mL and 2.458 ng/mL and 3.790 ng/mL
BDNF; Day 10 hr 4, 25 mg a day oral
  BDNF, individual subjects: 4.004 ng/mL and 10.697 ng/mL and 2.853 ng/mL and 4.347 ng/mL and 5.459 ng/mL and 3.733 ng/mL
BDNF; Pre-Treatment (baseline), MAD 25 mg subjects
  BDNF, individual subjects: 1.143 ng/mL and BDNF 0.612 ng/mL and 0.376 ng/mL and 0.460 ng/mL and 0.497 ng/mL and 1.922 ng/mL
BDNF; baseline, w/o placebo, N 6
  BDNF_T0 Mean: .83100 ng/mL
BDNF; day 2, 25 mg a day, w/o placebo, N 6
  BDNF_D2 Mean: 3.63 ng/mL
BDNF; day 6, 25 mg a day, w/o placebo, N 5
  BDNF_D6 Mean: 3.267 ng/mL
BDNF; day 10, 25 mg a day, w/o placebo, N 6
  BDNF_D10 Mean: 5.182 ng/mL
[13]; MAD 25 mg, Day 9
  Greatest mean pupillary constriction (MPC): −1.32 (0.553) mm
[13]; MAD 50 mg, Day 6
  Greatest mean pupillary constriction (MPC): −1.43 (0.175) mm
[13]; MAD 75 mg, Day 5
  Greatest mean pupillary constriction (MPC): −2.24 (0.619) mm
clinical; 25 mg
  AUC(0-inf): 13000 ng·h/mL
clinical; 25 mg, Tmax
  Tmax: 2.35 h
clinical; 50 mg
  AUC(0-inf): 32000 ng·h/mL
  Cmax: 587 ng/mL
clinical; 75 mg
  AUC(0-inf): 28900 ng·h/mL
  Cmax: 563 ng/mL
[14]
  inhibition: 91% and 92.7% and 89.3%
[15]; 5 mg
  AUC(0-inf): 1190 ng·h/mL
[15]; 5 mg, AUC0-24, SAD 5 mg, mean
  AUC(0-t): 675 ng·h/mL
[15]; 5 mg, AUC0-last, SAD 5 mg, mean
  AUC(0-t): 1250 ng·h/mL
[15]; 5 mg, median, SAD 5 mg
  Cmax: 48.4 ng/mL
[15]; 20 mg
  AUC(0-inf): 6230 ng·h/mL
[15]; 20 mg, AUC0-24, SAD 20 mg, mean
  AUC(0-t): 2310 ng·h/mL
[15]; 20 mg, AUC0-last, SAD 20 mg, mean
  AUC(0-t): 4620 ng·h/mL
[15]; 20 mg, SAD 20 mg, mean
  Cmax: 163 ng/mL
[15]; 60 mg
  AUC(0-inf): 14100 ng·h/mL
[15]; 60 mg, AUC0-24, SAD 60 mg, mean
  AUC(0-t): 5540 ng·h/mL
[15]; 60 mg, AUC0-last, SAD 60 mg, mean
  AUC(0-t): 13600 ng·h/mL
[15]; 60 mg, SAD 60 mg, mean
  Cmax: 404 ng/mL
[15]; 100 mg
  AUC(0-inf): 31100 ng·h/mL
[15]; 100 mg, AUC0-24, SAD 100 mg, mean
  AUC(0-t): 10700 ng·h/mL
[15]; 100 mg, AUC0-last, SAD 100 mg, mean
  AUC(0-t): 29700 ng·h/mL
[15]; 100 mg, SAD 100 mg, mean
  Cmax: 739 ng/mL
[15]; 150 mg
  AUC(0-inf): 32600 ng·h/mL
[15]; 150 mg, AUC0-24, SAD 150 mg, mean
  AUC(0-t): 14600 ng·h/mL
[15]; 150 mg, AUC0-last, SAD 150 mg, mean
  AUC(0-t): 37200 ng·h/mL
[15]; 150 mg, SAD 150 mg, mean
  Cmax: 1060 ng/mL
[15]; 200 mg, AUC0-24, SAD 200 mg, n=1
  AUC(0-t): 20700 ng·h/mL
[15]; 200 mg, AUC0-last, SAD 200 mg, n=1
  AUC(0-t): 67700 ng·h/mL
[15]; 200 mg, SAD 200 mg, n=1
  Cmax: 1530 ng/mL

— US20180214395A1 (priority 2017, published 2018)
